Source: patent publication US8389554B2, “Imidazothiadiazole derivatives” (Merck Patent Gesellschaft mit Beschränkter Haftung, priority 2008, dated 2013)

Target: T1, GST-ALK5 (Homo sapiens, UniProt P36897)
T1 sequence (P36897 34-503): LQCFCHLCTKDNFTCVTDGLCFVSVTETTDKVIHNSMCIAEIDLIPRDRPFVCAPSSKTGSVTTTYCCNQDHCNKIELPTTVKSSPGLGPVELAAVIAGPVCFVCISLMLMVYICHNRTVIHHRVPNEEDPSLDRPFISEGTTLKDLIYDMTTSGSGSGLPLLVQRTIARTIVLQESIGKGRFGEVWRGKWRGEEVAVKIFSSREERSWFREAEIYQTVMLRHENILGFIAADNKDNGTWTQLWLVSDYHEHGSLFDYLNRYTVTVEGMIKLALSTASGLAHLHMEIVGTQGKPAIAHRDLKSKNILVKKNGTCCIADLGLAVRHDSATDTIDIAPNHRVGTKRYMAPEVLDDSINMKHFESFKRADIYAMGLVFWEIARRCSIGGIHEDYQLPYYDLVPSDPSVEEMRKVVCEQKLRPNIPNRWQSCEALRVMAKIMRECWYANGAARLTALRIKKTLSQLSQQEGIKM
Assay: In-vitro (enzyme) flashplate kinase assay, inhibition of TGF-beta receptor I kinase
Type: biochemical
Conditions: 384-well flashplate, GST-ALK5, GST-SMAD2 substrate, 3 mM ATP, 30° C., 45 min
Procedure: In-Vitro (Enzyme) Assay for Determination of the Efficacy of Inhibitors of the Inhibition of TGF-Beta-Mediated Effects
The kinase assay was carried out as 384-well flashplate assay. 31.2 nM of GST-ALK5, 439 nM of GST-SMAD2 and 3 mM of ATP (with 0.3 μCi of ^33P-ATP/well) were incubated in a total volume of 35 μl (20 mM of HEPES, 10 mM of MgCl2, 5 mM of MnCl2, 1 mM of DTT, 0.1% of BSA, pH 7.4) without or with test substance (5-10 concentrations) at 30° C. for 45 min. The reaction was stopped using 25 μl of 200 mM EDTA solution, filtered with suction at room temperature after 30 min, and the wells were washed with 3 times 100 μl of 0.9% NaCl solution. Radioactivity was measured in the TopCount. The IC50 values were calculated using RS1 (Table 1). Above and below, all temperatures were indicated in ° C.

Compound	IC50
COc1cc(-c2cnc3sc(NCCc4ccccn4)nn23)cc(OC)c1OC [No 20, (2-Pyridin-2-yl-ethyl)-[5-(3,4,5-trimethoxy-phenyl)-imidazo[2,1-b][1,3,4]thiadiazol-2-yl]-amine]	270 nM
Cc1cc(-c2cnc3sc(NCc4ccco4)nn23)cc(C)c1O [No 38, 4-{2-[(Furan-2-ylmethyl)-amino]-imidazo[2,1-b][1,3,4]thiadiazol-5-yl}-2,6-dimethyl-phenol]	240 nM
CC(=O)c1cccc(-c2cnc3sc(NCCN4CCOCC4)nn23)c1 [No 158, 1-{3-[2-(2-Morpholin-4-yl-ethylamino)-imidazo[2,1-b][1,3,4]thiadiazol-5-yl]-phenyl}-ethanone]	780 nM
COc1cc(-c2cnc3sc(NCc4cccs4)nn23)cc(OC)c1OC [No 165, Thiophen-2-ylmethyl-[5-(3,4,5-trimethoxy-phenyl)-imidazo[2,1-b][1,3,4]thiadiazol-2-yl]-amine]	330 nM
COc1cc(-c2cnc3sc(NCC(C)C)nn23)cc(OC)c1OC [No 266, Isobutyl-[5-(3,4,5-trimethoxy-phenyl)-imidazo[2,1-b][1,3,4]thiadiazol-2-yl]-amine]	820 nM
COc1cc(-c2cnc3sc(NCC4CCOCC4)nn23)cc(OC)c1OC [No 274, (Tetrahydro-pyran-4-ylmethyl)-[5-(3,4,5-trimethoxy-phenyl)-imidazo[2,1-b][1,3,4]thiadiazol-2-yl]-amine]	810 nM
COc1cc(-c2cnc3sc(NCCOc4ccccc4)nn23)cc(OC)c1OC [No 277, (2-Phenoxy-ethyl)-[5-(3,4,5-trimethoxy-phenyl)-imidazo[2,1-b][1,3,4]thiadiazol-2-yl]-amine]	780 nM
COc1cc(-c2cnc3sc(NCc4cccs4)nn23)ccc1O [No 307, 2-Methoxy-4-{2-[(thiophen-2-ylmethyl)-amino]-imidazo[2,1-b][1,3,4]thiadiazol-5-yl}-phenol]	740 nM
CC(=O)c1cccc(-c2cnc3sc(NCCc4ccncc4)nn23)c1 [No 360]	700 nM
COc1cc(-c2cnc3sc(NC4CCC(O)CC4)nn23)cc(OC)c1OC (stereo not shown) [No 363, 4-[5-(3,4,5-Trimethoxy-phenyl)-imidazo[2,1-b][1,3,4]thiadiazol-2-ylamino]-cyclohexanol]	570 nM
COc1cc(-c2cnc3sc(NCc4cccnc4)nn23)cc(OC)c1OC [No 416, Pyridin-3-ylmethyl-[5-(3,4,5-trimethoxy-phenyl)-imidazo[2,1-b][1,3,4]thiadiazol-2-yl]-amine]	670 nM
COc1cc(-c2cnc3sc(NCCc4ccncc4)nn23)cc(OC)c1OC [No 442, (2-Pyridin-4-yl-ethyl)-[5-(3,4,5-trimethoxy-phenyl)-imidazo[2,1-b][1,3,4]thiadiazol-2-yl]-amine]	480 nM
COc1cc(-c2cnc3sc(NCCCO)nn23)cc(OC)c1OC [No 456, 3-[5-(3,4,5-Trimethoxy-phenyl)-imidazo[2,1-b][1,3,4]thiadiazol-2 - ylamino]-propan-1-ol]	740 nM
COc1cc(-c2cnc3sc(NCCc4ccc(S(N)(=O)=O)cc4)nn23)cc(OC)c1OC [No 464, 4-{2-[5-(3,4,5-Trimethoxy-phenyl)-imidazo[2,1-b][1,3,4]thiadiazol-2-ylamino]-ethyl}-benzenesulfonamide]	160 nM
CC(=O)c1cccc(-c2cnc3sc(NCCc4ccc(S(N)(=O)=O)cc4)nn23)c1 [No 490, 4-{2-[5-(3-Acetyl-phenyl)-imidazo[2,1-b][1,3,4]thiadiazol-2-ylamino]-ethyl}-benzenesulfonamide]	360 nM
COc1cc(-c2cnc3sc(NCCN4CCOCC4)nn23)cc(OC)c1OC [No 495, (2-Morpholin-4-yl-ethyl)-[5-(3,4,5-trimethoxy-phenyl)-imidazo[2,1-b][1,3,4]thiadiazol-2-yl]-amine]	490 nM
